From PMC6270983, “Gastroprotective Mechanisms of Action of Semisynthetic Carnosic Acid Derivatives in Human Cells” (Molecules, 2014)

How the values were obtained:
AGS cells [1] = experiment: Cellular reduced glutathione (GSH) content in AGS cells co-incubated with 4% ethanol; type: cell-based, human; details: 12 h; for percent increase of GSH content compared with untreated controls: AGS cells
[2] = tested on: human erythrocyte membranes; experiment: Inhibition of lipoperoxidation in erythrocyte membranes; type: biochemical
Method: The inhibition of lipid peroxidation was determined using human erythrocyte membranes. The products were tested at 500 µg/mL.

AGS cells [3] = experiment: Sodium taurocholate (NaT)-induced damage to AGS cells, viability by neutral red uptake; details: 60 min pre-treatment, then 10 mM NaT 30 min
Method: The model of AGS cells damaged by sodium taurocholate (NaT) was used to determine the gastroprotective effect of the compounds against the bile-induced injury on the gastric mucosa [10].
The effect of sodium taurocholate (NaT) on cell viability was determined according to Romano et al. [10]. […] Then, 10 mM NaT was added to all wells for 30 min. Un-treated cells were used as controls. Sucralfate (4 mg/mL) was used as reference compound. After incubation, the neutral red uptake (NRU, 0.05 mg/mL) assay was carried out to determine cell viability [4, 33].

MRC-5 fibroblasts = experiment: Proliferation assay of MRC-5 fibroblasts, neutral red uptake; type: cell-based, human; details: 4 days
Method: Human lung fibroblasts MRC-5 (ATCC CCL-171) were grown as monolayers in minimum essential Eagle medium (MEM), with Earle’s salts, 2 mM L-glutamine and 2.2 g/L sodium bicarbonate, supplemented with 10% heat-inactivated fetal bovine serum (FBS), 100 IU/mL penicillin and 100 µg/mL streptomycin in a humidified incubator with 5% CO2 in air at 37 °C. For the subsequent experiments, cells were plated at a density of 2.5 × 10^4 cells/mL in 96-well plates.
Untreated cells were used as controls. Cell viability was determined at the end of the incubation by means of the NRU assay. The neutral red concentration was 0.05 mg/mL [4, 33].

AGS cells [4] = experiment: Prostaglandin E2 (PGE2) content of AGS cells, enzyme immunoassay; type: cell-based, human

## CC(C)c1cc2c(c(O)c1O)[C@@]1(C(=O)O)CCCC(C)(C)[C@@H]1CC2 [CA, Carnosic acid]
AGS cells [1]; 4.5 µM
  percent increase of GSH content compared with untreated controls: 19%
[2]
  Inhibition of the lipoperoxidation, IC50: IC50 2.4 ± 0.18 µg/mL
AGS cells [3]; 6 µM
  percent cytoprotective effect compared to NaT control: 23%
AGS cells [3]; 12 µM
  percent cytoprotective effect compared to NaT control: 22%

## O.Oc1cc(O)c2c(c1)O[C@H](c1ccc(O)c(O)c1)[C@@H](O)C2 [Catechin, reference compound]
[2]
  Inhibition of the lipoperoxidation, IC50: IC50 75.4 ± 6.0 µg/mL

## COC(=O)[C@]12CCCC(C)(C)C1CCc1cc(C(C)C)c(O)c(O)c12 (stereo partly shown) [Compound 1]
[2]
  Inhibition of the lipoperoxidation, IC50: IC50 34.4 ± 4.1 µg/mL
AGS cells [3]; 3 µM
  percent cytoprotective effect compared to NaT control: 13%

## COC(=O)[C@]12CCCC(C)(C)C1CCc1cc(C(C)C)c(OC)c(OC)c12 (stereo partly shown) [Compound 2]
[2]
  Inhibition of the lipoperoxidation, percent effect at 500 µg/mL: 53%

## CC(=O)Oc1c(C(C)C)cc2c(c1OC(C)=O)[C@@]1(C(=O)O)CCCC(C)(C)C1CC2 (stereo partly shown) [Compound 3]
[2]
  Inhibition of the lipoperoxidation, percent effect at 500 µg/mL: 11%
AGS cells [3]; 10.5 µM
  percent cytoprotective effect compared to NaT control: 13%
AGS cells [3]; 21 µM
  percent cytoprotective effect compared to NaT control: 15%
AGS cells [3]; 42 µM
  percent cytoprotective effect compared to NaT control: 13%

## COC(=O)[C@]12CCCC(C)(C)C1CCc1cc(C(C)C)c(OC(=O)CCl)c(OC(=O)CCl)c12 (stereo partly shown) [Compound 5]
[2]
  Inhibition of the lipoperoxidation, IC50: IC50 27.6 ± 3.0 µg/mL
AGS cells [3]; 1.1 µM
  percent cytoprotective effect compared to NaT control: 17%
AGS cells [3]; 2.3 µM
  percent cytoprotective effect compared to NaT control: 15%
AGS cells [3]; 4.5 µM
  percent cytoprotective effect compared to NaT control: 8%

## CCC(=O)Oc1c(C(C)C)cc2c(c1O)[C@@]1(C(=O)OC)CCCC(C)(C)C1CC2 (stereo partly shown) [Compound 6]
[2]
  Inhibition of the lipoperoxidation, percent effect at 500 µg/mL: 42%

## CCCC(=O)Oc1c(C(C)C)cc2c(c1OC(=O)CCC)[C@@]1(C(=O)OC)CCCC(C)(C)C1CC2 (stereo partly shown) [Compound 7]
MRC-5 fibroblasts; 16 µM
  stimulation of fibroblast proliferation compared to untreated controls: 8%
[2]
  Inhibition of the lipoperoxidation, percent effect at 500 µg/mL: 34%

## COC(=O)[C@]12CCCC(C)(C)C1CCc1cc(C(C)C)c(OC(=O)C(C)C)c(O)c12 (stereo partly shown) [Compound 8]
[2]
  Inhibition of the lipoperoxidation, IC50: IC50 13.6 ± 1.48 µg/mL

## COC(=O)[C@]12CCCC(C)(C)C1CCc1cc(C(C)C)c(OC(=O)c3ccccc3)c(OC(=O)c3ccccc3)c12 (stereo partly shown) [Compound 9]
[2]
  Inhibition of the lipoperoxidation, IC50: IC50 147.2 ± 16.6 µg/mL

## COC(=O)[C@]12CCCC(C)(C)C1CCc1cc(C(C)C)c(OC(=O)c3cccnc3)c(OC(=O)c3cccnc3)c12 (stereo partly shown) [Compound 10, 11,12-O-dinicotinylmethylcarnosate]
AGS cells [1]; 1.4 µM
  percent increase of GSH content compared with untreated controls: 14%
[2]
  Inhibition of the lipoperoxidation, percent effect at 500 µg/mL: 22%

## COC(=O)[C@]12CCCC(C)(C)C1CCc1cc(C(C)C)c(OC(=O)Cc3ccccc3)c(OC(=O)Cc3ccccc3)c12 (stereo partly shown) [Compound 11]
[2]
  Inhibition of the lipoperoxidation, IC50: IC50 140.4 ± 12.6 µg/mL
AGS cells [3]; 62.5 µM
  percent cytoprotective effect compared to NaT control: 12%

## COC(=O)[C@]12CCCC(C)(C)C1CCc1cc(C(C)C)c(OC(=O)Cc3c[nH]c4ccccc34)c(OC(=O)Cc3c[nH]c4ccccc34)c12 (stereo partly shown) [Compound 12]
[2]
  Inhibition of the lipoperoxidation, percent effect at 500 µg/mL: 38%

## COC(=O)[C@]12CCCC(C)(C)C1CCc1cc(C(C)C)c(OC(=O)CCCc3c[nH]c4ccccc34)c(O)c12 (stereo partly shown) [Compound 13, 12-O-indolebutyrylmethylcarnosate]
AGS cells [4]; 20 µM, AGS cells
  increase of PGE2 content compared to controls: 2.7 fold
AGS cells [1]; 2.0 µM
  percent increase of GSH content compared with untreated controls: 11%
[2]
  Inhibition of the lipoperoxidation, percent effect at 500 µg/mL: 49%
AGS cells [3]; 2.5 µM
  percent cytoprotective effect compared to NaT control: 12%
AGS cells [3]; 5 µM
  percent cytoprotective effect compared to NaT control: 8%

## COc1c(C(C)C)cc2c(c1O)[C@@]1(C(=O)O)CCCC(C)(C)C1CC2 (stereo partly shown) [Compound 14, 12-O-methylcarnosic acid]
AGS cells [1]; 2.3 µM
  percent increase of GSH content compared with untreated controls: 8%
[2]
  Inhibition of the lipoperoxidation, IC50: IC50 186.3 ± 16.9 µg/mL
AGS cells [3]; 2.8 µM
  percent cytoprotective effect compared to NaT control: 12%
AGS cells [3]; 5.6 µM
  percent cytoprotective effect compared to NaT control: 5%

## COC(=O)[C@]12CCCC(C)(C)C1CCc1cc(C(C)C)c(OC)c(O)c12 (stereo partly shown) [Compound 15, 12-O-metylmethylcarnosate]
AGS cells [1]; 4.5 µM
  percent increase of GSH content compared with untreated controls: 11%
[2]
  Inhibition of the lipoperoxidation, IC50: IC50 165.0 ± 14.9 µg/mL

## CCCOc1c(OC)c(C(C)C)cc2c1[C@@]1(C(=O)OC)CCCC(C)(C)C1CC2 (stereo partly shown) [Compound 16]
MRC-5 fibroblasts; 12 µM
  growth stimulation compared to untreated controls: 8%
MRC-5 fibroblasts; 24 µM
  growth stimulation compared to untreated controls: 18%
[2]
  Inhibition of the lipoperoxidation, percent effect at 500 µg/mL: 46%

## COC(=O)[C@]12CCCC(C)(C)C1CCc1cc(C(C)C)c(OC)c(OC(C)=O)c12 (stereo partly shown) [Compound 17]
MRC-5 fibroblasts; 23 µM
  stimulation of fibroblast proliferation compared to untreated controls: 7%

## CCCOC(=O)[C@]12CCCC(C)(C)C1CCc1cc(C(C)C)c(OC)c(OCCC)c12 (stereo partly shown) [Compound 18]
MRC-5 fibroblasts; 32 µM
  stimulation of fibroblast proliferation compared to untreated controls: 16%
MRC-5 fibroblasts; 63 µM
  stimulation of fibroblast proliferation compared to untreated controls: 22%

## COc1ccc2c(c1)c(CC(=O)O)c(C)n2C(=O)c1ccc(Cl)cc1 [Indomethacin, reference compound]
AGS cells [4]; 100 µM, 1 h, control 24.9 ± 2.1
  PGE2: 8.5 ± 1.3 pg/mL

## CC(=O)N[C@@H](CS)C(=O)O [NAC, N-acetyl-L-cysteine, reference compound]
AGS cells [1]; 750 µM, control 3.6 ± 0.2
  GSH (nmol/10^6 cells): 4.0 ± 0.2 nmol/10^6 cells
AGS cells [1]; 750 µM
  percent increase of GSH content compared with untreated controls: 11%
